Experimental data from ChEMBL document CHEMBL5126568, “Determination of Slow-Binding HDAC Inhibitor Potency and Subclass Selectivity” (ACS Med Chem Lett, 2022).
pIC50, pKi: −log10 of the molar value.

Key:
Histone deacetylase 2 [1] = biological target: T1, Histone deacetylase 2 (Homo sapiens, UniProt Q92769); conditions: time 60.0 min
Histone deacetylase 2 [2] = biological target: T1, Histone deacetylase 2; experiment: Inhibition of full length C-terminal FLAG-tagged HDAC2 (unknown origin) assessed as inhibition constant (Ki) using (Ac-Leu-Gly-Lys(Ac)-AMC as substrate measured every 30 sec for 60 mins by fluorescence based assay
Histone deacetylase 1 [3] = biological target: T2, Histone deacetylase 1 (Homo sapiens, UniProt Q13547); experiment: Inhibition of full length C-terminal His-tagged HDAC1 (unknown origin) assessed as inhibition constant (Ki) using (Ac-Leu-Gly-Lys(Ac)-AMC as substrate measured every 30 sec for 60 mins by fluorescence based assay
Histone deacetylase 1 [4] = biological target: T2, Histone deacetylase 1; experiment: Inhibition of full length C-terminal His-tagged HDAC1 (unknown origin) using (Ac-Leu-Gly-Lys(Ac)-AMC as substrate preincubated with enzyme for 30 mins followed by substrate addition and measured after 30 mins by fluorescence based assay
Histone deacetylase 1 [5] = biological target: T2, Histone deacetylase 1; experiment: Inhibition of full length C-terminal His-tagged HDAC1 (unknown origin) using (Ac-Leu-Gly-Lys(Ac)-AMC as substrate preincubated with enzyme for 1 hrs followed by substrate addition and measured after 30 mins by fluorescence based assay
Histone deacetylase 1 [6] = biological target: T2, Histone deacetylase 1; experiment: Inhibition of full length C-terminal His-tagged HDAC1 (unknown origin) using (Ac-Leu-Gly-Lys(Ac)-AMC as substrate preincubated with enzyme for 2 hrs followed by substrate addition and measured after 30 mins by fluorescence based assay
Histone deacetylase 2 [7] = biological target: T1, Histone deacetylase 2; experiment: Inhibition of full length C-terminal FLAG-tagged HDAC2 (unknown origin) using (Ac-Leu-Gly-Lys(Ac)-AMC as substrate preincubated with enzyme for 30 mins followed by substrate addition and measured after 30 mins by fluorescence based assay
Histone deacetylase 2 [8] = biological target: T1, Histone deacetylase 2; experiment: Inhibition of full length C-terminal FLAG-tagged HDAC2 (unknown origin) using (Ac-Leu-Gly-Lys(Ac)-AMC as substrate preincubated with enzyme for 1 hrs followed by substrate addition and measured after 30 mins by fluorescence based assay
Histone deacetylase 2 [9] = biological target: T1, Histone deacetylase 2; experiment: Inhibition of full length C-terminal FLAG-tagged HDAC2 (unknown origin) using (Ac-Leu-Gly-Lys(Ac)-AMC as substrate preincubated with enzyme for 2 hrs followed by substrate addition and measured after 30 mins by fluorescence based assay
Histone deacetylase 1 [10] = biological target: T2, Histone deacetylase 1; experiment: Inhibition of full length C-terminal His-tagged HDAC1 (unknown origin) assessed as rate constant (k1) of EI complex using (Ac-Leu-Gly-Lys(Ac)-AMC as substrate measured every 30 sec for 60 mins by fluorescence based assay
Histone deacetylase 2 [11] = biological target: T1, Histone deacetylase 2; experiment: Inhibition of full length C-terminal FLAG-tagged HDAC2 (unknown origin) assessed as rate constant (k1) of EI complex using (Ac-Leu-Gly-Lys(Ac)-AMC as substrate measured every 30 sec for 60 mins by fluorescence based assay
Histone deacetylase 1 [12] = biological target: T2, Histone deacetylase 1; experiment: Inhibition of full length C-terminal His-tagged HDAC1 (unknown origin) assessed as rate constant (k-1) of EI complex using (Ac-Leu-Gly-Lys(Ac)-AMC as substrate measured every 30 sec for 60 mins by fluorescence based assay
Histone deacetylase 2 [13] = biological target: T1, Histone deacetylase 2; experiment: Inhibition of full length C-terminal FLAG-tagged HDAC2 (unknown origin) assessed as rate constant (k-1) of EI complex using (Ac-Leu-Gly-Lys(Ac)-AMC as substrate measured every 30 sec for 60 mins by fluorescence based assay
Histone deacetylase 1 [14] = biological target: T2, Histone deacetylase 1; conditions: time 60.0 min

T2 sequence (Q13547 whole entry): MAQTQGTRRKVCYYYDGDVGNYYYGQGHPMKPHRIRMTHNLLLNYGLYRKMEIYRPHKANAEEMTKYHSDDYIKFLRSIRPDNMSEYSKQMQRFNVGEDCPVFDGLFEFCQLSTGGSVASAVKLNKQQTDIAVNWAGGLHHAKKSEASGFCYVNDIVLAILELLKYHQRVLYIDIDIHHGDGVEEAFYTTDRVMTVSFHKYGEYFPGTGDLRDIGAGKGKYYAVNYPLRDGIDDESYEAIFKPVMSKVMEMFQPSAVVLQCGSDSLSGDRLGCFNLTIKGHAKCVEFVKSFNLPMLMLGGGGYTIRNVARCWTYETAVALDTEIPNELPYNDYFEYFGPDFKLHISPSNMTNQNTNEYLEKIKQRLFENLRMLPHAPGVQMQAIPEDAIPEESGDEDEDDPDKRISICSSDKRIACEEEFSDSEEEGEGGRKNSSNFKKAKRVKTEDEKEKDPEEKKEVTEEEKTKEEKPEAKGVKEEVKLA
T1 sequence (Q92769 whole entry): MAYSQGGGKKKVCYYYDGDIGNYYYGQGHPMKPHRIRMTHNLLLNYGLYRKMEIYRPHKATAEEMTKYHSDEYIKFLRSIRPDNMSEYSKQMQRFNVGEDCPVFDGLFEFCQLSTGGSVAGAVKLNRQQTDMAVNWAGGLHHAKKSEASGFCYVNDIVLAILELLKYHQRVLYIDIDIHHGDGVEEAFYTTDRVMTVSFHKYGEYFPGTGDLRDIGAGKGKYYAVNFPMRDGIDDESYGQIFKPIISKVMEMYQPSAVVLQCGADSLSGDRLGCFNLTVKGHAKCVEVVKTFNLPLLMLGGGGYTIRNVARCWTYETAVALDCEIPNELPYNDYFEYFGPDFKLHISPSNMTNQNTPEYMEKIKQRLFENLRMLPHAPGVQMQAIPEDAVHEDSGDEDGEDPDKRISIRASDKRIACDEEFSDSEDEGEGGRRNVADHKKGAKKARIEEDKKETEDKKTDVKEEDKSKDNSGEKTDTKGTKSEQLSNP

T1/2 (Histone deacetylase 2 [1])	pKi (Histone deacetylase 2 [2])	pKi (Histone deacetylase 1 [3])	pIC50 (Histone deacetylase 1 [4])	pIC50 (Histone deacetylase 1 [5])	pIC50 (Histone deacetylase 1 [6])	pIC50 (Histone deacetylase 2 [7])	pIC50 (Histone deacetylase 2 [8])	pIC50 (Histone deacetylase 2 [9])	K (Histone deacetylase 1 [10])	K (Histone deacetylase 2 [11])	K (Histone deacetylase 1 [12])	K (Histone deacetylase 2 [13])	T1/2 (Histone deacetylase 1 [14])	SMILES
> 4 h														Nc1ccccc1NC(=O)c1ccc(CNC(=O)OCc2cccnc2)cc1
2.17 h	6.99	7.40	7.95	8.15	8.31	7.32	7.61	7.85	7.8 10^-5/nM/min	5.1 10^-5/nM/min	3 10^-3/min	5 10^-3/min	3.67 h	CCCNNC(=O)c1ccc(CNC(=O)/C=C/c2ccccc2)cc1
